Assay: xn = mol fraction of the nth substance listed

COCCO + CC(C)=O
viscosity [mPa·s], 101.33 kPa
Details | 293.15 K | 298.15 K | 303.15 K
x1 = 0.0508 | 0.373 | 0.356 | 0.342
x1 = 0.1006 | 0.439 | 0.416 | 0.397
x1 = 0.1509 | 0.507 | 0.477 | 0.453
x1 = 0.2015 | 0.563 | 0.527 | 0.5
x1 = 0.2496 | 0.613 | 0.572 | 0.541
x1 = 0.2998 | 0.652 | 0.607 | 0.574
x1 = 0.351 | 0.688 | 0.64 | 0.603
x1 = 0.3995 | 0.726 | 0.673 | 0.632
x1 = 0.4503 | 0.767 | 0.709 | 0.663
x1 = 0.5006 | 0.818 | 0.753 | 0.7
x1 = 0.5504 | 0.875 | 0.804 | 0.742
x1 = 0.6007 | 0.941 | 0.861 | 0.79
x1 = 0.6496 | 1.012 | 0.923 | 0.845
x1 = 0.6998 | 1.09 | 0.991 | 0.905
x1 = 0.7502 | 1.17 | 1.062 | 0.969
x1 = 0.8004 | 1.248 | 1.132 | 1.033
x1 = 0.8511 | 1.333 | 1.209 | 1.106
x1 = 0.8999 | 1.419 | 1.287 | 1.179
x1 = 0.9503 | 1.542 | 1.398 | 1.278

CCCCNCCCC + CCCCCCO
viscosity [mPa·s], 101.33 kPa
Details | x1 = 0.1034 | x1 = 0.1705 | x1 = 0.2901 | x1 = 0.3817 | x1 = 0.5001 | x1 = 0.5958 | x1 = 0.6955 | x1 = 0.7942 | x1 = 0.9007
303.15 K | 3.304 | 2.992 | 2.495 | 2.156 | 1.776 | 1.52 | 1.277 | 1.088 | 0.9036
313.15 K | 2.723 | 2.473 | 2.069 | 1.792 | 1.475 | 1.265 | 1.088 | 0.9214 | 0.7818

CC(CC(C)(C)C)CC(C)(C)CC(C)(C)C (stereo not given) + C1CC[C@H]2CCCC[C@H]2C1
viscosity [mPa·s], 100 kPa
Details | x2 = 0.125 | x2 = 0.25 | x2 = 0.375 | x2 = 0.5 | x2 = 0.625 | x2 = 0.75 | x2 = 0.875
293.15 K | 3.68 | 3.64 | 3.559 | 3.505 | 3.456 | 3.402 | 3.377
303.15 K | 2.919 | 2.871 | 2.83 | 2.797 | 2.765 | 2.736 | 2.713
313.15 K | 2.364 | 2.334 | 2.303 | 2.279 | 2.259 | 2.254 | 2.228
323.15 K | 1.961 | 1.934 | 1.911 | 1.897 | 1.884 | 1.876 | 1.87

CCCC(C)O (stereo not given) + CCCCCCC
101 kPa
Details | viscosity [mPa·s]
293.8 K, x1 = 0.5 | 0.771
295.1 K, x1 = 0.051 | 0.477

CC(=O)OC(C)C + Cc1ccc(C)cc1
viscosity [mPa·s], 101 kPa
Details | 303.15 K | 308.15 K | 313.15 K
x1 = 0.0984 | 0.554 | – | 0.502
x1 = 0.2017 | 0.541 | – | 0.489
x1 = 0.3126 | 0.527 | – | 0.476
x1 = 0.4038 | 0.515 | – | 0.465
x1 = 0.5039 | 0.505 | – | 0.455
x1 = 0.6015 | 0.495 | – | 0.446
x1 = 0.7028 | 0.487 | – | 0.437
x1 = 0.8113 | 0.477 | – | 0.427
x1 = 0.9523 | 0.464 | – | 0.417
x2 = 0.1061 | – | 0.4401 | –
x2 = 0.2201 | – | 0.4568 | –
x2 = 0.2975 | – | 0.4636 | –
x2 = 0.3892 | – | 0.4726 | –
x2 = 0.4985 | – | 0.4819 | –
x2 = 0.5821 | – | 0.4898 | –
x2 = 0.696 | – | 0.5019 | –
x2 = 0.7973 | – | 0.5123 | –
x2 = 0.8976 | – | 0.5215 | –

CCCC(=O)O + C1CCOC1
298.15 K, 101 kPa
Details | viscosity [mPa·s]
x2 = 0.1195 | 1.45
x2 = 0.234 | 1.43
x2 = 0.3437 | 1.34
x2 = 0.4489 | 1.212
x2 = 0.5499 | 1.068
x2 = 0.647 | 0.9205
x2 = 0.7403 | 0.7856
x2 = 0.8301 | 0.6588
x2 = 0.9166 | 0.545

CCOC(=O)C(=O)OCC + CCCCO
303.15 K, 101.33 kPa
Details | viscosity [mPa·s]
x1 = 0.1064 | 1.803
x1 = 0.1924 | 1.613
x1 = 0.2954 | 1.496
x1 = 0.3832 | 1.438
x1 = 0.5033 | 1.405
x1 = 0.6097 | 1.405
x1 = 0.6734 | 1.419
x1 = 0.7804 | 1.461
x1 = 0.9074 | 1.556

CC(CC(C)(C)C)CC(C)(C)CC(C)(C)C (stereo not given) + CCCCCCCCCCCC
Details | viscosity [mPa·s]
323.15 K, 100 kPa, x1 = 0.279 | 1.09

COCCO + CCC(C)O
viscosity [mPa·s]
Details | 298.15 K | 303.15 K | 313.15 K
100 kPa, x1 = 0.1007 | 2.54 | – | 1.61
100 kPa, x1 = 0.202 | 2.2 | – | 1.46
100 kPa, x1 = 0.3022 | 1.98 | – | 1.36
100 kPa, x1 = 0.4018 | 1.83 | – | 1.29
100 kPa, x1 = 0.5022 | 1.73 | – | 1.24
100 kPa, x1 = 0.6017 | 1.66 | – | 1.21
100 kPa, x1 = 0.701 | 1.61 | – | 1.19
100 kPa, x1 = 0.8006 | 1.58 | – | 1.18
100 kPa, x1 = 0.9006 | 1.56 | – | 1.18
101.3 kPa, x1 = 0.1228 | – | 2.584 | –
101.3 kPa, x1 = 0.209 | – | 2.261 | –
101.3 kPa, x1 = 0.3377 | – | 1.898 | –
101.3 kPa, x1 = 0.428 | – | 1.714 | –
101.3 kPa, x1 = 0.5977 | – | 1.488 | –
101.3 kPa, x1 = 0.6442 | – | 1.45 | –
101.3 kPa, x1 = 0.7067 | – | 1.411 | –
101.3 kPa, x1 = 0.8447 | – | 1.368 | –
101.3 kPa, x1 = 0.9188 | – | 1.308 | –

N#C[S-].[Na+] + CO
viscosity [mPa·s], 101.3 kPa
Details | 293.15 K | 298.15 K | 303.15 K | 308.15 K | 313.15 K | 318.15 K | 323.15 K
x1 = 0.003649 | 0.656 | 0.608 | 0.563 | 0.526 | 0.491 | 0.46 | 0.432
x1 = 0.01456 | 0.819 | 0.753 | 0.695 | 0.643 | 0.597 | 0.556 | 0.518
x1 = 0.03159 | 0.947 | 0.871 | 0.803 | 0.743 | 0.689 | 0.646 | 0.602
x1 = 0.0463 | 1.117 | 1.027 | 0.947 | 0.873 | 0.811 | 0.753 | 0.703
x1 = 0.05341 | 1.197 | 1.101 | 1.011 | 0.932 | 0.861 | 0.798 | 0.742
x1 = 0.07204 | 1.409 | 1.286 | 1.176 | 1.086 | 1.011 | 0.923 | 0.859
x1 = 0.08868 | 1.716 | 1.552 | 1.416 | 1.293 | 1.186 | 1.092 | 1.009
x1 = 0.09954 | 1.915 | 1.711 | 1.514 | 1.38 | 1.261 | 1.16 | 1.068
x1 = 0.1138 | 2.253 | 1.996 | 1.793 | 1.624 | 1.477 | 1.353 | 1.239
x1 = 0.1229 | 2.36 | 2.109 | 1.904 | 1.732 | 1.565 | 1.426 | 1.304
x1 = 0.1415 | 2.922 | 2.58 | 2.295 | 2.055 | 1.854 | 1.683 | 1.535

CCN(C=O)CC + NC=O
viscosity [mPa·s]
Details | 298.15 K | 308.15 K | 323.15 K
101 kPa, x1 = 0.1 | 3.55 | 2.91 | 2.27
101 kPa, x1 = 0.2 | 3.62 | 2.97 | 2.29
101 kPa, x1 = 0.3 | 3.51 | 2.86 | 2.15
101 kPa, x1 = 0.4 | 3.25 | 2.62 | 1.91
101 kPa, x1 = 0.5 | 2.93 | 2.34 | 1.64
101 kPa, x1 = 0.6 | 2.52 | 2.01 | 1.43
101 kPa, x1 = 0.7 | 2.24 | 1.71 | 1.22
101 kPa, x1 = 0.85 | 1.61 | 1.34 | 1.01
101.33 kPa, x2 = 0.07537 | 1.391 | – | 0.937
101.33 kPa, x2 = 0.1513 | 1.585 | – | 1.034
101.33 kPa, x2 = 0.2164 | 1.736 | – | 1.103
101.33 kPa, x2 = 0.2957 | 2.021 | – | 1.26
101.33 kPa, x2 = 0.3723 | 2.312 | – | 1.37
101.33 kPa, x2 = 0.4452 | 2.614 | – | 1.503
101.33 kPa, x2 = 0.4964 | 2.776 | – | 1.603
101.33 kPa, x2 = 0.5665 | 3.138 | – | 1.757
101.33 kPa, x2 = 0.6362 | 3.333 | – | 1.859
101.33 kPa, x2 = 0.7013 | 3.547 | – | 1.942
101.33 kPa, x2 = 0.7404 | 3.678 | – | 1.99
101.33 kPa, x2 = 0.785 | 3.722 | – | 2.046
101.33 kPa, x2 = 0.8471 | 3.663 | – | 2.045
101.33 kPa, x2 = 0.93 | 3.516 | – | 1.978

[Cl-].[Li+] + CN1CCCC1=O
298.15 K, 101 kPa
Details | viscosity [mPa·s]
x1 = 0.03756 | 2.607
x1 = 0.03819 | 2.63
x1 = 0.04156 | 2.626
x1 = 0.07132 | 3.558
x1 = 0.07175 | 3.558
x1 = 0.07229 | 3.56
x1 = 0.1038 | 4.959
x1 = 0.1042 | 4.958
x1 = 0.1044 | 4.958

CCCCNCCCC + CNC(C)=O
308.15 K, 101 kPa
Details | viscosity [mPa·s]
x1 = 0.0121 | 3.267
x2 = 0.0611 | 0.7366
x2 = 0.2864 | 1.116
x2 = 0.4546 | 1.522
x2 = 0.5799 | 1.89
x2 = 0.6904 | 2.25
x2 = 0.7866 | 2.584
x2 = 0.8542 | 2.828
x2 = 0.9262 | 3.06

From the CheMixHub viscosity set
